The record followed here is patent publication US8822517B2, “Arylosulfonamides for the treatment of CNS diseases” (Adamed SP. Z O.O., priority 2010, dated 2014).

Read-outs that look alike come from different tables or passages of the source.

Assay [1] has as its target T1, serotonine transporter (SERT) receptor (Homo sapiens, UniProt P31645).
T1 construct: expressed in transfected cells; host or cells: CHO cells
Put plainly: Binding assay SERT (h), [3H]imipramine, CHO cells. The settings on record: read-out: SERT [%]. An outline of the steps: (§1)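 Tested at 1×10^−6 M. Specific binding: total minus binding remaining with excess cold ligand. Detection: scintillation counting.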

In another assay the target is T2, muscarinic M3 receptor (Homo sapiens, UniProt P20309).
T2 construct: expressed in transfected cells; host or cells: CHO cells
T2 sequence (P20309 whole entry): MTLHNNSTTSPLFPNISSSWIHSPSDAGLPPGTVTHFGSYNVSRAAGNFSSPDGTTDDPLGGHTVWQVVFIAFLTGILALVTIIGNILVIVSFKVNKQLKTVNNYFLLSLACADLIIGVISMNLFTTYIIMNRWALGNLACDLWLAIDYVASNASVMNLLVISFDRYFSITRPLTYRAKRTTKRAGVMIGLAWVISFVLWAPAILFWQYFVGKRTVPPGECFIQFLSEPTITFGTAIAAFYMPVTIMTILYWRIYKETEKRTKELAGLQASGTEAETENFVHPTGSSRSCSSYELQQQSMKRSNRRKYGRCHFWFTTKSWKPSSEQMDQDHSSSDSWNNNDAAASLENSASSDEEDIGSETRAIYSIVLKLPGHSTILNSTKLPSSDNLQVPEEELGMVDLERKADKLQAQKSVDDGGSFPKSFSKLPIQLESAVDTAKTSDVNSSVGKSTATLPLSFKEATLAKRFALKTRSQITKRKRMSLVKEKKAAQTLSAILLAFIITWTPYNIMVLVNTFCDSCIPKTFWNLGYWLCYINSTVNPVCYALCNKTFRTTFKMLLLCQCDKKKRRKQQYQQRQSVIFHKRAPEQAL
Put plainly: Binding assay M3 (h), [3H]4-DAMP, CHO cells. To be noted: read-out: M3 [%]. Put shortly:
as §1

The next assay deals with dopaminergic D3 receptor (Homo sapiens, UniProt P35462). Put plainly: Cellular functional assay, dopaminergic D3 receptor (agonism/antagonism). It is filed as cell-based. As to the method: (§2) The compounds were tested at the concentration of 1×10^−6M.
Chain of dopaminergic D3 receptor (P35462 whole entry): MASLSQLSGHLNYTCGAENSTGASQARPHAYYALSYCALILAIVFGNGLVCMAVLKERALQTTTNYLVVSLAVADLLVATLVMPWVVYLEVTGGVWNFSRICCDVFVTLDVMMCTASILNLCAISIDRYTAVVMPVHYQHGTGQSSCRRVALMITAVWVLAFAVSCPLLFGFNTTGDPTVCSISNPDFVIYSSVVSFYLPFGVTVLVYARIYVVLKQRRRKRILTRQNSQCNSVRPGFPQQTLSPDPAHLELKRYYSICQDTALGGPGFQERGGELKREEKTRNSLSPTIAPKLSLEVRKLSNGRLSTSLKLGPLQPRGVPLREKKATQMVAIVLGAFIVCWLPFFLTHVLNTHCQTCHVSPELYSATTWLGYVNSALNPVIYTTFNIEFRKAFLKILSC
(§3) In the Tables ag refers to agonism, and antag to antagonism).

Assay [2] has as its target T3, serotoninergic 5-HT1A receptor (Homo sapiens, UniProt P08908).
T3 sequence (P08908 1-422): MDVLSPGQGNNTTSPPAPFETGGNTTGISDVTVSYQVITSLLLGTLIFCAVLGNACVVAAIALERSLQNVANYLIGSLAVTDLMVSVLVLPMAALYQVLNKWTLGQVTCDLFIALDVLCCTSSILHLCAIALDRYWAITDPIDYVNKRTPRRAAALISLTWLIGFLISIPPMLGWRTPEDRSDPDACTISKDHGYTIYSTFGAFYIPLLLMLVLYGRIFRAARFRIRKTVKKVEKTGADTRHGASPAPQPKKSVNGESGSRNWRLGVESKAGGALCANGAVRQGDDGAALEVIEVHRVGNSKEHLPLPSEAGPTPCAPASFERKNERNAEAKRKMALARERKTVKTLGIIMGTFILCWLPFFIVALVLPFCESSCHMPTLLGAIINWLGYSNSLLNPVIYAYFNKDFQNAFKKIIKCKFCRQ
Put plainly: Cellular functional assay, serotoninergic 5-HT1A receptor (agonism/antagonism). It is filed as cell-based. As to the method:
as §2, §3

Assay [3] addresses T4, serotoninergic 5-HT6 receptor (Homo sapiens, UniProt P50406). The assay can be described thus: Cellular functional assay, serotoninergic 5-HT6 receptor (agonism/antagonism). To be noted: for activation at 1 µM: read-out: 5-HT6-ag [%]; for inhibition at 1 µM: read-out: 5-HT6-antag. [%]. It is filed as cell-based. As to the method:
as §2, §3

Another assay has as its target T5, adrenergic α1A receptor (Homo sapiens, UniProt P35348).
T5 sequence (P35348 1-466): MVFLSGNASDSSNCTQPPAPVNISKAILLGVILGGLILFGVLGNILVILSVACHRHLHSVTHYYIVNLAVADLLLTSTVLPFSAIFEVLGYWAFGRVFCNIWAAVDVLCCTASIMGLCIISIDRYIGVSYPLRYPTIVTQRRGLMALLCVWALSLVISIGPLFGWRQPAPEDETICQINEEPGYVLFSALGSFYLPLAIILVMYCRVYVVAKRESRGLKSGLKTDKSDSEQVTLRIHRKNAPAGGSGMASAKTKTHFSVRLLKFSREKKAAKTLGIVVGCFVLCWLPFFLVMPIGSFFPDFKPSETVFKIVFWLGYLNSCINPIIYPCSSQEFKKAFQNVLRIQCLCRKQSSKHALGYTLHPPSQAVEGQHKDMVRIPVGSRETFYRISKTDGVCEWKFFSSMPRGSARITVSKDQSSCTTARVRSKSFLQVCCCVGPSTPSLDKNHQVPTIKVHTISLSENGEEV
Put plainly: Cellular functional assay, adrenergic α1A receptor (agonism/antagonism). The settings on record: for activation at 1 µM: read-out: α1A -ag [%]; for inhibition at 1 µM: read-out: α1A -antag. [%]. It is filed as cell-based. Put shortly: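 Human receptors tested in cell-based functional format for both agonist and antagonist modes. Single compound concentration of 1×10^−6M.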

For another assay, the target named is T6, adrenergic α2C receptor (Homo sapiens, UniProt P18825).
T6 sequence (P18825 1-462): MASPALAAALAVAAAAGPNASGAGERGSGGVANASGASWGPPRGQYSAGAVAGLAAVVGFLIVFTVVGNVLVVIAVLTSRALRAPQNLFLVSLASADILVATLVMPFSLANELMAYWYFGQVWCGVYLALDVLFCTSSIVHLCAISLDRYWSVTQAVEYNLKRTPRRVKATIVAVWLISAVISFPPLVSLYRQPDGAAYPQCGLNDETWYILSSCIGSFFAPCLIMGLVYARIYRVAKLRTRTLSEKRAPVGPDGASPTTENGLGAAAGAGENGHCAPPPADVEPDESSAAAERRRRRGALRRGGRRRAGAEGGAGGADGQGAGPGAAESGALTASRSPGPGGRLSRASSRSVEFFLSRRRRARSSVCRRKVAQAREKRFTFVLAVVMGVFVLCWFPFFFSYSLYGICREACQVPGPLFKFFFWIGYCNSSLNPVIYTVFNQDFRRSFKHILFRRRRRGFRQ
Put plainly: Cellular functional assay, adrenergic α2C receptor (agonism/antagonism). In kind it is cell-based. The settings on record: for activation at 1 µM: read-out: α2C −ag [%]; for inhibition at 1 µM: read-out: α2C −antag. [%]. Here is the method:
as §2, §3

The target of assay [4] is T4, serotoninergic 5-HT6 receptor. The assay can be described thus: Binding assay 5-HT6 (h), [3H]LSD, CHO cells. Set-up: expressed in transfected cells; host or cells: CHO cells. To be noted: read-out: 5-HT6. Put shortly:
as §1

Assay [5] addresses serotoninergic 5-HT7 receptor (Homo sapiens, UniProt P34969). The assay can be described thus: Binding assay 5-HT7 (h), [3H]LSD, CHO cells. Set-up: expressed in transfected cells; host or cells: CHO cells. The settings on record: read-out: 5-HT7. An outline of the steps:
as §1

Another assay deals with dopaminergic D2 receptor (Homo sapiens, UniProt P14416). The assay can be described thus: Binding assay D2S (h), [3H]methyl-spiperone, HEK-293 cells. To be noted: read-out: D2 [%]. Set-up: expressed in transfected cells; host or cells: HEK-293 cells. An outline of the steps: as §1
Chain of dopaminergic D2 receptor (P14416 1-414 isoform P14416-2): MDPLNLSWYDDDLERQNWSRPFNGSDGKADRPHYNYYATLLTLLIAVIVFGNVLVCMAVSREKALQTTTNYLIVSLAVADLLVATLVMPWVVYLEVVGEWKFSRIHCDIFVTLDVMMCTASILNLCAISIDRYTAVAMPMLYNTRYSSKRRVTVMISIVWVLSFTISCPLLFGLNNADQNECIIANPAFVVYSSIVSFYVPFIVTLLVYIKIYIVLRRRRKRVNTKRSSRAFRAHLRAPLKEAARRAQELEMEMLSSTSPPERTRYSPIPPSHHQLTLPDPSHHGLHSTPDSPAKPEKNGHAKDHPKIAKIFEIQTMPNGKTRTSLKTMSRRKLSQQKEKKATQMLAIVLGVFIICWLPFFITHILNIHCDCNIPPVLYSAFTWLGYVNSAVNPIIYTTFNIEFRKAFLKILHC
The target in assay [6] is histaminergic H1 receptor (Homo sapiens, UniProt P35367). Put plainly: Binding assay H1 (h), [3H]pyrilamine, HEK-293 cells. To be noted: read-out: H1 [%]. Set-up: expressed in transfected cells; host or cells: HEK-293 cells. An outline of the steps: as §1
Chain of histaminergic H1 receptor (P35367 whole entry): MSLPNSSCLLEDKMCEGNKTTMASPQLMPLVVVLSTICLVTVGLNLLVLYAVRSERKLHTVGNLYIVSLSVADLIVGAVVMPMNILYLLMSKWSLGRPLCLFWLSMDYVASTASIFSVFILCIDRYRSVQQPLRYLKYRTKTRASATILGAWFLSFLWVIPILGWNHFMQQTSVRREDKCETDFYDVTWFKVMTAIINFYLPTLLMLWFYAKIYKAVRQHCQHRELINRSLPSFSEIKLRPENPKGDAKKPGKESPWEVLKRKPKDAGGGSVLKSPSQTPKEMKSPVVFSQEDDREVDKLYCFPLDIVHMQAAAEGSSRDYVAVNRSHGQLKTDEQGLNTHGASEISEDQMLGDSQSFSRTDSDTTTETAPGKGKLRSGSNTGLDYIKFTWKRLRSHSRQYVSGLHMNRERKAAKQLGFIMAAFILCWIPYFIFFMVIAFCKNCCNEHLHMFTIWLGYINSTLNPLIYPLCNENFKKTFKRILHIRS
[7] abbreviates: agonist effect, percent of control specific agonist response (300 nM dopamine for control); 1×10^−6 M; D3 (h), CHO cells; read-out: D3-ag [%].
[8] abbreviates: CHO; read-out: 5-HT1A-antag. [%].
Setting [9] is: agonist effect, percent of control specific agonist response (100 nM 8-OH-DPAT for control); 1×10^−6 M; 5-HT1A (h), CHO cells; read-out: 5-HT1A-ag [%].
The mark [10] stands for this setting: agonist effect, percent of control specific agonist response, compounds tested at 1×10^−6M.

T4 sequence (P50406 whole entry): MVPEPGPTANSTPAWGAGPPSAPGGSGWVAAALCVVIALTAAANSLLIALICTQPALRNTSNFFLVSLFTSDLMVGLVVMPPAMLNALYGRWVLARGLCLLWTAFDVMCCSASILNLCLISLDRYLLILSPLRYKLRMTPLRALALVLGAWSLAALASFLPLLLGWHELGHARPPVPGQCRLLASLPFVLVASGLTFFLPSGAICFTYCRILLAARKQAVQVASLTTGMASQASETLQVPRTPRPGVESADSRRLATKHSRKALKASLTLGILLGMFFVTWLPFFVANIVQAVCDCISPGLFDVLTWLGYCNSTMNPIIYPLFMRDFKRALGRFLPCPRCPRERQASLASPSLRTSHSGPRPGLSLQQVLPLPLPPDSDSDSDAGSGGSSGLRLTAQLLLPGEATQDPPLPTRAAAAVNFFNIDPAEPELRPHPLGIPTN
T1 sequence (P31645 whole entry): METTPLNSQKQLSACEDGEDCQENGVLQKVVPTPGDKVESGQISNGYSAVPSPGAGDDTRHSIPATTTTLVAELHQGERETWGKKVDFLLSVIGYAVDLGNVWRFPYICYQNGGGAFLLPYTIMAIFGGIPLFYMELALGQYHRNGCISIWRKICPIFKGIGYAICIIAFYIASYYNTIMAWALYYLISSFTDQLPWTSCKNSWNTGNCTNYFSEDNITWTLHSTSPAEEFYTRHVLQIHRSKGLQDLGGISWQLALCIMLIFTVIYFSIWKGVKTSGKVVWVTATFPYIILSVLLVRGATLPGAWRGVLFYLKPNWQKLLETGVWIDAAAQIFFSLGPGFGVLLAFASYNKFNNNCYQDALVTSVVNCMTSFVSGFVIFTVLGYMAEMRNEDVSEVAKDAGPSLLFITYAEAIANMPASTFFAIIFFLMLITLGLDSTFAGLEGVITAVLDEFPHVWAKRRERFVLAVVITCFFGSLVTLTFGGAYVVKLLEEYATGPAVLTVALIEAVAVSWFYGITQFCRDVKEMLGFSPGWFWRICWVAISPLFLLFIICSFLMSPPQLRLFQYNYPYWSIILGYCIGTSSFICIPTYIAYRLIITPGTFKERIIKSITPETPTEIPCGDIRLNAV
Chain of serotoninergic 5-HT7 receptor (P34969 whole entry): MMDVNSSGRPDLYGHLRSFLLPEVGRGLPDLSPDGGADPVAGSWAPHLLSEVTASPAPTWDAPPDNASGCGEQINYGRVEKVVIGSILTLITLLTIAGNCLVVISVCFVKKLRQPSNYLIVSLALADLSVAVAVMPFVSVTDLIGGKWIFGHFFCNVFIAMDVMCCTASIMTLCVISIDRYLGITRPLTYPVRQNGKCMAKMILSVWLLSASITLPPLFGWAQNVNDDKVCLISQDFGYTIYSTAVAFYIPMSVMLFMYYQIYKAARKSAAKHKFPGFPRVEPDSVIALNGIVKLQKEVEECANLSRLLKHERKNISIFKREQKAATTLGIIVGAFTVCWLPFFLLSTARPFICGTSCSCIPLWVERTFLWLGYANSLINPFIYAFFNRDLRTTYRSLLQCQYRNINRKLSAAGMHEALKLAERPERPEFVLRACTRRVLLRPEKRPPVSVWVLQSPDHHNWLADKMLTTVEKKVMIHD

For `O=S(=O)(NCCCCN1CCN(c2nsc3ccccc23)CC1)c1ccc2ccccc2c1` [Compound 2, N-(4-(4-(1,2-Benzothiazol-3-yl)piperazin-1-yl)butyl)naphthalene-2-sulphonamide], the inhibition at 1 µM came to 69% in assay [1]; 17% on muscarinic M3 receptor; 81% on dopaminergic D3 receptor (CHO, read-out: D3-antag. [%]); 18% in assay [2] (CHO, read-out: 5-HT1A-antag. [%]); 28% in [3]; 100% on adrenergic α1A receptor. In addition, the inhibition at 1 µM on adrenergic α2C receptor is 30%; in assay [4], 97%; in [5], 97%; at dopaminergic D2 receptor it was 98%; in assay [6], 94%. The activation at 1 µM on dopaminergic D3 receptor (CHO, read-out: D3-ag [%]) was -15%; in assay [2] (CHO, read-out: 5-HT1A-ag [%]) it was 47%; in [3], 2%; on adrenergic α1A receptor it was 0%; at adrenergic α2C receptor, -8%.
For `O=S(=O)(NCCCCN1CCC(c2noc3cc(F)ccc23)CC1)c1ccc2cc(Cl)ccc2c1` [Compound 97, 6-Chloro-N-[4-[4-(6-fluoro-1,2-benzoxazol-3-yl)piperidin-1-yl]butyl]naphthalene-2-sulphonamide], the inhibition at 1 µM in [1] was 61%; at muscarinic M3 receptor it was 16%; on dopaminergic D3 receptor (CHO; read-out: D3-antag. [%]) it was 87%; in assay [2] (setting [8]), 38%; in assay [3], 95%; on adrenergic α1A receptor, 99%. The inhibition at 1 µM at adrenergic α2C receptor was found to be 36%; in [4], 98%; in [5] it was 93%; at dopaminergic D2 receptor it was 100%; in assay [6], 91%. The activation at 1 µM is -23% at dopaminergic D3 receptor (setting [7]); 13% in [2] (setting [9]); -2% in [3] (setting [10]); 0% at adrenergic α1A receptor (setting [10]); -4% on adrenergic α2C receptor (setting [10]).
In the case of `O=S(=O)(NCCCCN1CCN(c2nsc3ccccc23)CC1)c1csc2ccccc12` [Compound 240, N-[4-[4-(1,2-Benzothiazol-3-yl)piperazin-1-yl]butyl]benzothiophene-3-sulphonamide], the inhibition at 1 µM in [1] was determined as 46%; at muscarinic M3 receptor, 15%; on dopaminergic D3 receptor (CHO; read-out: D3-antag. [%]) it was 72%; in assay [2] (setting [8]), 50%; in assay [3], 71%; at adrenergic α1A receptor, 100%. The inhibition at 1 µM turned out to be 35% on adrenergic α2C receptor; 98% in assay [4]; 97% in [5]; 101% at dopaminergic D2 receptor; 92% in assay [6]. Also, the activation at 1 µM is 8% at dopaminergic D3 receptor (setting [7]); 9% in assay [2] (setting [9]); -2% in assay [3] (setting [10]); 0% on adrenergic α1A receptor (setting [10]); 13% at adrenergic α2C receptor (setting [10]).
For the molecule `O=S(=O)(NCCCCN1CCN(c2nsc3ccccc23)CC1)c1ccc2cc(Cl)ccc2c1` [Compound 61, N-[4-[4-(1,2-Benzothiazol-3-yl)piperazin-1-yl]butyl]-6-chloro-naphthalene-2-sulphonamide], the inhibition at 1 µM in [1] turned out to be 55%; at muscarinic M3 receptor it was 5%; on dopaminergic D3 receptor (CHO; read-out: D3-antag. [%]) it was 45%; in [2] (setting [8]) it was 20%; in assay [3] it was 72%; on adrenergic α1A receptor it was 100%. Besides, the inhibition at 1 µM on adrenergic α2C receptor was determined as 18%; in [4], 96%; in [5], 100%; on dopaminergic D2 receptor, 100%; in [6] it was 97%. Besides, the activation at 1 µM was 4% at dopaminergic D3 receptor (setting [7]); 75% in assay [2] (setting [9]); -2% in assay [3] (setting [10]); 0% on adrenergic α1A receptor (setting [10]); 1% on adrenergic α2C receptor (setting [10]).
Turning to `Cc1c(S(=O)(=O)NCCCCN2CCN(c3noc4ccccc34)CC2)sc2ccc(F)cc12` [Compound 81, N-[4-[4-(1,2-Benzoxazol-3-yl)piperazin-1-yl]butyl]-5-fluoro-3-methylbenzothiophene-2-sulphonamide], the inhibition at 1 µM in [1] worked out at 28%; at muscarinic M3 receptor it was 6%; at dopaminergic D3 receptor (CHO; read-out: D3-antag. [%]), 76%; in assay [2] (setting [8]) it was 22%; in [3], 88%; on adrenergic α1A receptor, 100%. The inhibition at 1 µM on adrenergic α2C receptor worked out at 20%; in assay [4] it was 98%; in assay [5], 99%; at dopaminergic D2 receptor, 90%; in assay [6], 93%. Moreover, the activation at 1 µM on dopaminergic D3 receptor (setting [7]) is -10%; in [2] (setting [9]), 5%; in assay [3] (setting [10]) it was 1%; at adrenergic α1A receptor (setting [10]), 1%; on adrenergic α2C receptor (setting [10]), 9%.
On to `O=c1[nH]c2ccc(S(=O)(=O)NCCCN3CCN(c4nsc5ccccc45)CC3)cc2o1` [Compound 8, N-(3-(4-(1,2-Benzothiazol-3-yl)piperazin-1-yl)propyl)-2-oxo-3H-1,3-benzoxazole-6-sulphonamide], for which the inhibition at 1 µM in assay [1] was 63%; on muscarinic M3 receptor it was -11%; at dopaminergic D3 receptor (CHO; read-out: D3-antag. [%]), 73%; in assay [2] (setting [8]) it was 81%; in [3] it was 64%; on adrenergic α1A receptor, 100%. For the same molecule, the inhibition at 1 µM at adrenergic α2C receptor was determined as 1%; in assay [4], 91%; in [5], 97%; on dopaminergic D2 receptor, 98%; in assay [6] it was 97%. The activation at 1 µM on dopaminergic D3 receptor (setting [7]) is -24%; in [2] (setting [9]) it was 14%; in [3] (setting [10]) it was -1%; at adrenergic α1A receptor (setting [10]), 0%; at adrenergic α2C receptor (setting [10]) it was -16%.
